Results taken from ChEMBL document CHEMBL1149163, “Application of predictive QSAR models to database mining: identification and experimental validation of novel anticonvulsant compounds” (J Med Chem, 2004).

How the values were obtained:
Mus musculus [1] = experiment: Compound was evaluated for anticonvulsant activity by maximal electroshock seizure test, intraperitoneally in mice; Value ranges from >100 to <300; type: functional; details: ip
[2] = Neurologic toxicity from rotarod test in mice; type: organism-based; details: mouse, in vivo
[3] = Neurologic toxicity from rotarod test in rats, perorally; type: organism-based; details: rat, in vivo, po
Mus musculus [4] = experiment: Compound was evaluated for anticonvulsant activity by maximal electroshock seizure test, intraperitoneally in mice; type: functional; details: ip
Rattus norvegicus [5] = species: Rattus norvegicus; experiment: Compound was evaluated for anticonvulsant activity by maximal electroshock seizure test, perorally in rats; type: functional; details: po
[6] = Neurologic toxicity from rotarod test in mice; Value ranges from >100 to <300; type: organism-based; details: mouse, in vivo
Mus musculus [7] = experiment: Compound was evaluated for anticonvulsant activity by maximal electroshock seizure test, intraperitoneally in mice; Value ranges from >100 […]; type: functional; details: ip
Rattus norvegicus [8] = species: Rattus norvegicus; experiment: Compound was evaluated for anticonvulsant activity by maximal electroshock seizure test, perorally in rats; Value ranges from >100 […]; type: functional; details: po
[9] = Neurologic toxicity from rotarod test in rats, perorally; Value ranges from >100 to <300; type: organism-based; details: rat, in vivo, po
[10] = Neurologic toxicity from rotarod test in mice; Value ranges from >100 […]; type: organism-based; details: mouse, in vivo

## COCC(NC(C)=O)C(=O)N(C)Cc1ccccc1 (configuration not stated)
Mus musculus [1]
  ED50: < 300 mg/kg

## CN(C)C(=O)CNC(=O)OCc1ccccc1
[2]
  TD50: 130 mg/kg
[3]
  TD50: > 30 mg/kg

## CCNCC(=O)Nc1c(C)cccc1C
Mus musculus [4]
  ED50: 18 mg/kg
[2]
  TD50: 50 mg/kg
Rattus norvegicus [5]
  ED50: 11 mg/kg
[3]
  TD50: > 500 mg/kg

## CON(C)C(=O)C(C)NC(=O)OCc1ccccc1 (configuration not stated)
Mus musculus [1]
  ED50: < 300 mg/kg
[6]
  TD50: < 300 mg/kg
Rattus norvegicus [5]
  ED50: ~30 mg/kg
[3]
  TD50: > 30 mg/kg

## CNC(=O)CNC(=O)OCc1ccccc1
Mus musculus [7]
  ED50: > 100 mg/kg
[6]
  TD50: < 300 mg/kg
Rattus norvegicus [8]
  ED50: < 30 mg/kg
[9]
  TD50: > 100 mg/kg

## CCN(CC)C(=O)CNC(=O)OCc1ccccc1
[2]
  TD50: 91 mg/kg
[3]
  TD50: > 30 mg/kg

## CON(C)C(=O)CNC(=O)OCc1ccccc1
[2]
  TD50: 140 mg/kg
[3]
  TD50: > 30 mg/kg

## CCNC(=O)CNC(=O)OCc1ccccc1
[10]
  TD50: < 300 mg/kg
[3]
  TD50: > 500 mg/kg

## CCN(CC)C(=O)C(C)NC(=O)OCc1ccccc1 (configuration not stated)
Mus musculus [4]
  ED50: 74 mg/kg
[2]
  TD50: 130 mg/kg
Rattus norvegicus [5]
  ED50: < 30 mg/kg
[3]
  TD50: > 30 mg/kg

## Cc1cccc(NC(=O)N(C)C)c1
[6]
  TD50: < 300 mg/kg
[3]
  TD50: > 30 mg/kg
